# In patent US6503492B2, “Antiperspirant or deodorant compositions” (priority 2001, dated 2003):
# Where “and” joins values, the source holds several entries; their conditions need not be identical. Identical values can stand only once.
# Tests used:
# histamine-induced itch [1] = assay: Histamine-induced itch, test material topically applied in Aqueous Cream BP (histamine iontophoresis, VAS); conditions: for Itch score (area under the curve): VAS area 0 to 5 min; for Itch score % of control: versus vehicle alone
# histamine-induced itch [2] = assay: Histamine-induced itch, test material topically applied in ethanol:Vaseline Intensive Care Lotion; format: in vivo, human; conditions: for Anti-pruritic action (in words): comparison N-acyl ethanolamides in ethanol:VICL lotion; for Itch score % of control: comparison N-acyl ethanolamides, 50 mM in ethanol, in ethanol:VICL lotion, versus vehicle alone of the same run
# Procedure: This mixture was applied (250 μl/5 cm^2-5 times at 1 h intervals) and histamine iontophoresis was performed on the treated site in the method described in Example 2. The vehicle control was ethanol:VICL (volume ratio 1:1).
# Related molecules stearylethanolamine (SEA; 50 mM in ethanol) and linoleoylethanolamine (LAMEA; 50 mM in ethanol) were tested as potential activating agents for a CBR, employing the test method described in Example 3 and applied in the ethanol:VICL lotion.
# histamine-induced itch [3] = assay: Histamine-induced itch, test material applied under water-impermeable patch for 24 hours; conditions: PEA 100 mM under patch
# [4] = tested on: antiperspirant-induced irritation; assay: Antiperspirant-induced irritation in vivo, 47 h Finn chamber patch test, erythema grading; parameters: species or system human
# Procedure: In this Example, patch tests were performed on a mixed panel of 49 volunteers with age ranges between 18 and 55, using a double-blind protocol with randomized patch sites. Samples (20 mg) were applied to a filter paper that was placed within a Finn chamber (0.8 cm internal diameter). The chambers were then attached to the volar forearm using Scanpore™ tape (Norgesplater, Nor.) and left for 47 h. At the end of the 47 h period, the patches were removed and the site was left open for 5 h when the erythema associated with the patch was visually assessed and scored using an in-house standard assessment Patch Grading Scale as set out below.
# [5] = tested on: skin organotypic cultures (Epiderm™); assay: Skin organotypic culture: antiperspirant (APF1)-induced IL-6 release, ELISA; conditions: for IL-6 pg/ml ± SD: APF1 topically, 24h
# [6] = AEA 5% (w/v) in Aqueous Cream BP
smiles,measurement,setting,value
"CCCCC/C=C\C/C=C\C/C=C\C/C=C\CCCC(=O)NCCO [AEA, (all Z)-N-(2-Hydroxyethyl)-5,8,11,14-eicosatetraenamide]",Itch score (area under the curve),histamine-induced itch [1]; [6],1322
same,Itch score % of control,histamine-induced itch [1]; [6],76 % of control
same,Effect on histamine-induced itch (in words),histamine-induced itch [1]; anandamide topically applied,inhibitor of histamine-induced itch
"CCCCCCC(C)(C)c1cc(O)c2c(c1)OC(C)(C)[C@@H]1CC=C(CO)C[C@@H]21 [HU-210, (6aR)-trans-3-(1,1-Dimethylheptyl)-6a,7,10,10a-tetrahydro-1-hydroxy-6,6-dimethyl-6H-dibenzo[b,d]pyran-9-methanol]",Itch score % of control,histamine-induced itch [1]; HU-210 0.05% (w/v) in Aqueous Cream BP,7.3 % of control
same,Itch score (area under the curve),"histamine-induced itch [1]; HU-210 0.05% (w/v) in Aqueous Cream BP, volar forearm, after 4 hours",101
same,Itch score % of control,histamine-induced itch [1]; HU-210 0.5% (w/v) in Aqueous Cream BP,6.2 % of control
same,Itch score (area under the curve),"histamine-induced itch [1]; HU-210 0.5% (w/v) in Aqueous Cream BP, volar forearm, after 4 hours",119
same,Effect on histamine-induced itch (in words),histamine-induced itch [1]; HU-210 topically applied in Aqueous Cream BP,capable of reducing histamine-induced itch
"CCCCC/C=C\C/C=C\CCCCCCCC(=O)NCCO [LAMEA, linoleoylethanolamine]",Anti-pruritic action (in words),histamine-induced itch [2],unable to demonstrate any anti-pruritic action or even appeared to exacerbate the itch response
same,Itch score % of control,histamine-induced itch [2],169 % of control and 108 % of control and 100 % of control
"CCCCCCCCCCCCCCCC(=O)NCCO [PEA, Palmitoylethanolamide]",Effect on histamine-induced itch (in words),histamine-induced itch [3],can inhibit histamine-induced itch
same,Effect on histamine-induced itch (in words),histamine-induced itch [2]; PEA topically applied in the presence of a lotion,can inhibit histamine-induced itch
same,Irritation induced by APF1 (in words),"[4]; 0.25% palmitoylethanolamide in APF1, Wilcoxon signed rank test, significance level 5%",reduced significantly
same,Mean Irritation Score,"[4]; APF1 with 0.25% PEA, 20 mg in Finn chamber 47 h, scored 5 h after removal, Patch Grading Scale 0-4, 49 volunteers",0.54
same,IL-6 pg/ml ± SD,[5]; PEA 0.1 μM in the medium,38.3 ± 7.6 pg/mL
same,IL-6 pg/ml ± SD,[5]; PEA 1.0 μM in the medium,36.5 ± 11.6 pg/mL
same,IL-6 pg/ml ± SD,[5]; PEA 10.0 μM in the medium,59.5 ± 13.8 pg/mL
same,IL-6 pg/ml ± SD,[5]; PEA 100.0 μM in the medium,43.0 ± 7.9 pg/mL
same,IL-6 pg/ml ± SD,[5]; PEA 1000.0 μM in the medium,63.0 ± 24.8 pg/mL
same,AP-induced IL-6 release (in words),"[5]; PEA at all concentrations used, Dunnet's test p<0.05",significantly decrease AP-induced IL-6 release
"CCCCCCCCCCCCCCCCCC(=O)NCCO [SEA, stearylethanolamine]",Anti-pruritic action (in words),histamine-induced itch [2],unable to demonstrate any anti-pruritic action or even appeared to exacerbate the itch response
same,Itch score % of control,histamine-induced itch [2],231 % of control and 260 % of control and 190 % of control
